Several values for one entry are separate records, joined by “and”; a condition that tells them apart may be missing. Equal entries are not always repeated.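 Five compound concentrations were applied to cells in 96-well plates for 48 hours; endpoints were derived by simple linear interpolation of the resulting dose-response curve. GI50 = concentration required for 50% inhibition of growth. TGI: concentration producing complete growth inhibition.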
Legend:
Test in all cases: growth of human tumour cells (NCI), 48 h
NCI-H522 lung = test system: NCI-H522 lung
SK-OV-3 ovarian = test system: SK-OV-3 ovarian
HS 578T breast = test system: HS 578T breast
NCI-H226 lung = test system: NCI-H226 lung
SF-295 CNS = test system: SF-295 CNS
LOX IMVI melanoma = test system: LOX IMVI melanoma
A498 renal = test system: A498 renal
NCI/ADR-RES ovarian = test system: NCI/ADR-RES ovarian
HCT-116 colon = test system: HCT-116 colon
UO-31 renal = test system: UO-31 renal

Compound | GI50 (NCI-H522 lung) [µM] | TGI (NCI-H522 lung) | GI50 (SK-OV-3 ovarian) [µM] | TGI (SK-OV-3 ovarian) | GI50 (HS 578T breast) [µM] | TGI (HS 578T breast) [µM] | GI50 (NCI-H226 lung) [µM] | TGI (NCI-H226 lung) [µM] | GI50 (SF-295 CNS) [µM] | TGI (SF-295 CNS) | GI50 (LOX IMVI melanoma) [µM] | TGI (LOX IMVI melanoma) | GI50 (A498 renal) [µM] | TGI (A498 renal) [µM] | GI50 (NCI/ADR-RES ovarian) [µM] | TGI (NCI/ADR-RES ovarian) [µM] | GI50 (HCT-116 colon) [µM] | TGI (HCT-116 colon) | GI50 (UO-31 renal) [µM] | TGI (UO-31 renal)
CCC(=C(c1ccc(OCCN(CC)CC)cc1)c1ccc(OCCN(CC)CC)cc1)c1ccc(Cl)cc1 | 0.564 | 1.21 µM | 0.594 | 1.16 µM | 0.668 | 1.57 | 0.679 | 1.48 | 0.615 | 1.19 µM | 0.55 | 1.03 µM | 0.591 | 1.66 | 0.625 | 1.21 | 0.508 | 0.995 µM | 0.484 | 0.94 µM
c1csc(-c2[nH]nc3c2CCc2ccccc2-3)c1 | 18.9 | 44.9 µM | 24.6 | 65.6 µM | 14.5 | 55.4 | 13.5 | 42.2 | 16.4 | 38.7 µM | 15.7 | 29.4 µM | 14.3 | 32.4 | 17.7 | 49.3 | 14.9 | 29.3 µM | 6.4 | 34.9 µM
C/C(=N\NC(=O)c1ccncc1)c1ccccc1O | 2.82 | > 100 µM | 4.84 | > 100 µM | 26.7 | > 100 | 6.27 | > 100 | 1.38 | > 100 µM | 1.46 | > 100 µM | 29 | > 100 | 2.23 | > 100 | 2.32 | > 100 µM | 0.973 | 28.9 µM
CCn1c(SC)nnc1-c1cc2c([nH]c3ccccc32)c(-c2cccc(O)c2)n1 | 1.06 | 11.8 µM | 2.44 | 6.3 µM | 1.97 | 9.76 | 1.91 | 4.9 | 1.83 | 5.23 µM | 2.51 | 29.1 µM | 1.42 | 10.9 | 3.71 | 36.1 | 2.5 | 14 µM | 1.94 | 15.8 µM
N#Cc1c(N)nc(N2CCOCC2)c(C#N)c1-c1ccc(Cl)cc1Cl | 4.77 | 18.4 µM | 22.2 | 91.1 µM | 15.8 | 45.9 | 26.9 | > 100 | 19 | 51.8 µM | 16.7 | 34.2 µM | 2.68 | 11.1 | 19.9 | 48.1 | 22.1 | 54.7 µM | 3.26 | 15.8 µM
O=C(NCc1cccnc1)c1ccc([N+](=O)[O-])o1 | 0.141 | 0.602 µM | 4.13 | 14.2 µM | 2.52 | > 9.5 | 4.21 | 13.2 | 2.48 | 7.14 µM | 1.2 | 6.58 µM | 3.25 | 9.02 | 1.66 | 23.9 | 1.42 | 13.4 µM | 2.83 | > 14.7 µM
COc1cccc2c(Nc3ccc(C(=O)NCCN4CCNCC4)cc3)cc(-c3ccccc3)nc12 | 15.8 | 30.5 µM | > 100 | > 100 µM | 46.9 | > 100 | > 100 | > 100 | 33.1 | > 100 µM | 20.6 | 45.9 µM | > 100 | > 100 | > 100 | > 100 | 30.9 | > 100 µM | 49.4 | > 100 µM
Cc1c(N)nc(C2CC(=O)N2CC(N)C(N)=O)nc1C(=O)NC(C(=O)NC(C)C(O)C(C)C(=O)NC(C(=O)NCCc1nc(-c2nc(C(=O)NCCNCC(C)O)cs2)cs1)C(C)O)C(OC1OC(CO)C(O)C(O)C1OC1OC(CO)C(O)C(OC(N)=O)C1O)c1cnc[nH]1 (stereo unspecified) | 0.972 | 10.8 µM and 7.89 µM | 10.6 | 50 µM and > 32.9 µM |  | 50 |  | 0.261 | 0.46 | 12.1 µM and 15.7 µM | 0.712 | 9.28 µM and 8.16 µM |  | > 46.6 |  | 50 | 6.97 | 50 µM and 24.3 µM | 0.974 | 17 µM and 21.6 µM
Cc1cccc(Cc2cnc(NC(=O)CCCOc3ccc(Cl)cc3)s2)c1 | 51.1 | > 100 µM | > 100 | > 100 µM | 5.32 | > 100 | 59.3 | > 100 | 3.89 | > 100 µM | 6.8 | > 100 µM | 1.36 | 6.25 | 29.3 | > 100 | 3.36 | > 100 µM | 4.52 | > 100 µM
